Test results reported in patent US8410068B2, “Compounds for the treatment or alleviation of edema, and methods for their use” (Index Pharmaceuticals AB, priority 2007, dated 2013).

Tests used:
[1] = tested on: arachidonic acid (AA) induced ear edema; assay: Arachidonic acid (AA) induced ear edema model; type: in vivo, mice; conditions: for AUC reduction (%) AA: 10 μg one single s.c. injection 20 minutes before AA, compared to PBS control; for Peak reduction (%) AA: 10 μg subcutaneously 20 minutes before induction of edema
Procedure: A stock solution of AA was prepared by diluting AA in acetone, 4 mg/10 μL, and was stored frozen at −80° C. A final working solution, 1 mg/10 μL, in acetone was prepared. The working solution was used within one hour after preparation.
(§1) Both outer ears of a non-anesthetized mouse were washed with mild soap (Palmolive, Sweden) using a soft tooth brush, the ears were dried with tissue and cleaned with tissue soaked with acetone. After allowing the acetone to evaporate, TPA or AA was applied on both sides, 10 μL, on each side of the ear with care to cover the whole ear. The mouse was held for 20 seconds to allow the solvent to evaporate.
(§2) The ears of non-anesthetized mice were measured at different time points for up to 96 hours after the TPA was administered, or up to 24 hours for the AA model. The first measurements were done before the edema was induced. The thickness was recorded with a spring loaded dial micrometer (Limit, Thickness Gauge, accuracy 0.01 mm, contact area Ø6 mm, Luna AB, Allingsås, Sweden) in triplicates at all time points per ear.
(§3) The average thickness for both ears on a mouse was calculated and compared to the average thickness of the ears at the starting time point. The value obtained at the start of the experiment was set as 100%. The peak values and area under the curve (AUC) values for the treatment groups were calculated and compared to the inflamed control group, treated with PBS (set as 100%), and expressed as a percentage change (Δ% AUC).
(§4) Area under the curve (AUC) with base line set as 100 was calculated using GraphPad Prism version 4.03 for Windows (GraphPad Software, San Diego Calif. USA, www.graphpad.com).
In addition to the experiments done with the control compounds and IDX0001, all other test compounds were investigated in a similar fashion in the TPA and/or AA ear edema models, where the test compounds were given subcutaneously (10 μg) 20 minutes before induction of edema. The results were expressed as reduction of peak value and reduction of area under curve (AUC) in Table 5.

[2] = tested on: tetradecanoylphorbol 13-acetate (TPA) induced ear edema; assay: TPA-induced ear edema model; type: in vivo, mice; conditions: for Differences in AUC: Study L dose response; for Reduction of AUC compared to PBS: Study A / FIG. 1, one single injection (i.p. in Study A, s.c. in FIG. 1) 20 min before TPA, day 0; for AUC reduced: Study J; for AUC reduction (%) TPA: 10 μg one single s.c. injection 20 minutes before TPA, compared to PBS control; for Peak reduction (%) TPA: 10 μg subcutaneously 20 minutes before induction of edema
Procedure: A stock solution of TPA was prepared by dissolving TPA in DMSO, 1 mg/mL, and was stored frozen at −80° C. For study B-E, a working solution was prepared with 200 μL of the TPA stock solution added to 800 μL acetone. The working solution was used the same day as it was prepared.
Each cage was identified by a cage card marked with study number, group number, ethical approval number, sex and animal ear numbers. The animals were individually marked on the tail with transverse lines corresponding to the animals' number, using a permanent-ink felt pen. An illustration of the protocols used for the different treatments is outlined in Table 4. The compounds were tested according to the same protocols with necessary modifications.
Intraperitoneal (i.p.) injections were performed by giving 100 μL in the lower right quadrant of the abdomen. Subcutaneous injections were done with 100 μL in the neck region. Intranasal administration was performed by letting the mouse inhale droplets into the nostrils, total volume 40 μL. All administrations were done on non-anesthetized mice.
as §1
Intraperitoneal injections were given in the lower right quadrant of the abdomen with the animal held in a supine position. Subcutaneous (s.c.) injections were given in the neck of the animals. Intranasal administrations were given to mice held in a slightly reclining position. With an adjustable micro-pipette 40 μL of the test substance was given in droplets on the nostrils and the mouse was allowed to aspirate at free will.
as §2, §3, §4
AUC reduction and P-values were calculated against the positive control (TPA or AA+PBS).

[3] = Study B, 100 μg s.c. 4 days before induction of edema
[4] = Study C (repeat of B), 100 μg s.c. 4 days before induction of edema
[5] = Study D, 100 μg s.c. 2 days before induction of edema
[6] = Study E, 100 μg s.c. same day, approx. 20 min before induction
[7] = Study F, equal doses 50 μg s.c. same day as swelling induced
[8] = Study G, therapeutic, 100 μg s.c. 2 hours after induction of edema
[9] = Study H, 100 μg intranasal 4 days before swelling induced
[10] = Study I, 100 μg intranasal day 0, same day as edema induced
[11] = therapeutic, 100 μg intranasal 2 hours after induction

O=C1CCN(c2ccccc2)N1 [Phenidone]
reduction of AUC ([1]; FIG. 4, phenidone given 30 min before AA, IDX0150 given 20 min before AA): −39.1%

G*G*A*A*C*A*G*T*T*C*G*T*C*C*A*T*G*G*C (as printed in the source, key not given here) [IDX0500]
reduction of AUC ([2]; Study N, 0.005 μg, one single i.n. (Table 4) day 0): −15% | reduction of AUC ([2]; Study N, 0.01 μg, one single i.n. (Table 4) day 0): −15.3% | reduction of AUC ([2]; Study N, 0.1 μg, one single i.n. (Table 4) day 0): −18.2% | reduction of AUC ([2]; Study N, 1 μg, one single i.n. (Table 4) day 0): −54.1% | reduction of AUC ([2]; Study O, 10 μg given s.c. on day 0 (Table 4: i.n.)): −25.5%

G*G*A*ACAGTTGCTCCAT*G*G*C (as printed in the source, key not given here) [IDX0526, negative control, having the CpG motif substituted with a GC]
Differences in AUC ([2]; 0.1 μg, one single i.n. (Table 4) day 0): +1.24% | Differences in AUC ([2]; 100 μg, one single i.n. (Table 4) day 0): +6.18% | anti-swelling activity ([2]; Study L, 0.1-100 μg): no anti-swelling activity

G*G*G*GAACAGTTCGTCCAT*G*G*C (phosphorothioate linkages, as printed in the source, key not given here) [IDX0955, oligonucleotide used as control; * = phosphorothioate modification]
Reduction of AUC compared to PBS ([2]; 100 μg): −4.8% | reduction of AUC [2, 3]: −22.7% | reduction of AUC [2, 4]: −24.3% | reduction of AUC [2, 5]: −17.8% | reduction of AUC [2, 6]: −17.7% | reduction of AUC [2, 7]: −18.3% | reduction of AUC [2, 8]: −40.7% | reduction of AUC [2, 9]: −17.4% | reduction of AUC [2, 10]: −28.8% | AUC reduced [2, 11]: −17.2%

G*G*G*GCGTCTGCC*G*G*G (GGGGCGTCTGCCGGG; DNA, linkages s3 o8 s3 (s phosphorothioate, o phosphodiester), methylation of C not given here) [IDX9051, oligonucleotide; * = phosphorothioate modification]
AUC reduction (%) TPA [2]: −54.0% | Peak reduction (%) TPA [2]: −29.5% | AUC reduction (%) AA [1]: −67.5% | Peak reduction (%) AA [1]: −17.7%

T*C*C*A*T*G*A*C*G*T*T*C*C*T*G*A*C*G*T*T [IDX0920]
Reduction of AUC compared to PBS ([2]; 50 μg): −22.1% | reduction of AUC ([2]; Study B, 50 μg s.c. 4 days before induction of edema): −19.3% | reduction of AUC ([2]; Study C (repeat of B), 50 μg s.c. 4 days before induction of edema): −3% | reduction of AUC ([2]; Study D, 50 μg s.c. 2 days before induction of edema): −19.1% | reduction of AUC ([2]; Study E, 50 μg s.c. same day, approx. 20 min before induction): −19.4% | reduction of AUC [2, 7]: −17% | reduction of AUC ([2]; Study G, therapeutic, 50 μg s.c. 2 hours after induction of edema): −43.8% | reduction of AUC ([2]; Study H, 50 μg intranasal 4 days before swelling induced): −33.8% | reduction of AUC ([2]; Study I, 50 μg intranasal day 0, same day as edema induced): −27.3% | AUC reduced ([2]; therapeutic, 50 μg intranasal 2 hours after induction): −28.7%

T*C*C*ATGGTCAGGGTCCCGG*G*G*G (TCCATGGTCAGGGTCCCGGGGG; DNA, linkages s3 o15 s3 (s phosphorothioate, o phosphodiester), methylation of C not given here) [IDX9064, oligonucleotide; * = phosphorothioate modification]
AUC reduction (%) TPA [2]: −59.7% | Peak reduction (%) TPA [2]: −41.7%

T*C*C*CAAGATCGTCC*A*G*G (phosphorothioate linkages, as printed in the source, key not given here) [IDX9076, oligonucleotide; * = phosphorothioate modification]
AUC reduction (%) TPA [2]: −5.1% | Peak reduction (%) TPA [2]: −2.6% | AUC reduction (%) AA [1]: −45.7% | Peak reduction (%) AA [1]: −20.1%

T*C*C*GATCGTCC*A*G*G (TCCGATCGTCCAGG; DNA, linkages s3 o7 s3 (s phosphorothioate, o phosphodiester), methylation of C not given here) [IDX9078]
AUC reduction (%) TPA [2]: −41.3% | Peak reduction (%) TPA [2]: −26.1% | AUC reduction (%) AA [1]: −79.4% | Peak reduction (%) AA [1]: −16.4%

T*C*C*GCGTTCGGCCTCCTGGCG*C*G*G (phosphorothioate linkages, as printed in the source, key not given here) [IDX0001, oligonucleotide; * = phosphorothioate modification]
Reduction of AUC compared to PBS ([2]; 100 μg): −15.7% | reduction of AUC [2, 3]: −16.3% | reduction of AUC [2, 4]: −17.9% | reduction of AUC [2, 5]: −12.4% | reduction of AUC [2, 6]: −16.7% | reduction of AUC [2, 7]: −13.2% | reduction of AUC [2, 8]: −17.9% | reduction of AUC [2, 9]: −25.7% | reduction of AUC [2, 10]: −6.4% | AUC reduced [2, 11]: −25.2%

T*C*G*TCTGCTTAGTTCGTTA*G*T*T (TCGTCTGCTTAGTTCGTTAGTT; DNA, linkages s3 o15 s3 (s phosphorothioate, o phosphodiester), methylation of C not given here) [IDX9087]
AUC reduction (%) TPA [2]: −40.2% | Peak reduction (%) TPA [2]: +0.9%

T*G*C*CATTCGTCGTTCTCGTC*G*T*T (phosphorothioate linkages, as printed in the source, key not given here) [IDX9024, oligonucleotide; * = phosphorothioate modification]
AUC reduction (%) TPA [2]: −47.3% | Peak reduction (%) TPA [2]: −30.9% | AUC reduction (%) AA [1]: −58.5% | Peak reduction (%) AA [1]: −14.4%
